{"source": "patent US20230338398A1", "about": "“USE OF DELTA-8-THC TO TREAT INFLAMMATORY AND AUTOIMMUNE DISEASES” (UNIVERSITY OF SOUTH CAROLINA, priority 2022, published 2023)", "key": {"[1]": {"tested_on": "Experimental Autoimmune Encephalomyelitis (EAE)", "assay": "Experimental Autoimmune Encephalomyelitis (EAE) model: clinical score and body weight", "assay_type": "in vivo", "conditions": "EAE C57BL/6 mice, 10 mg/kg intraperitoneally every day from day 10, vs vehicle", "protocol": "6-8 weeks old Female C57BL/6 mice were purchased from Jackson Laboratory (Bar Harbor, ME). Animals colonies were maintained in accordance with Federal regulations and guidelines set by the animal facility of the University of South Carolina Institutional Animal Care and Use Committee (IACUC). Mice were housed in a single room under controlled temperature (22° C.), identical SPF, 50% relative humidity, and photoperiods (12:12 hours light/dark cycle). Animals were allowed unlimited access (ad libitum feeding) to autoclaved drinking water and a standard irradiated soy-free mouse chow. The health of the animals was monitored daily by the veterinarian in the animal facility.\nEAE is a model for human Multiple Sclerosis. EAE was induced in 6-8 weeks old Female C57BL/6 mice through subcutaneous immunization with 100 μl of 150 μg MOG35-55 peptide (PolyPeptide Laboratories San Diego, CA, USA) along with heat killed Mycobacterium Tuberculosis 8 mg/ml (strain H37Ra) (BD, Franklin Lakes, NJ, USA), emulsified in PBS and complete Freund's adjuvant (CFA) (Fisher, Hampton, NH, USA). Mice also received two subsequent doses of 200 and 400 ng of pertussis toxin intraperitoneally on day 0 and 2, respectively (List Biological Laboratories, Campbell, CA, USA). […] During the experiment, animals were weighed for weight change and scored for disease progression on a daily basis. The mean body weight and clinical scores were calculated daily for each group. Clinical scores were recorded as follows: 0, healthy; 1, tail atony; 2, partial paralysis of hind limbs; 3, complete paralysis of hind limbs in combination with partial front limb paralysis; 4, tetraplegia; 5, moribund.\nThe data were expressed as mean±SEM calculated using GraphPad Prism 9 (GraphPad Inc, La Jolla, CA) and the data sets for all experiments represent three to four experimental replicates per group. […]"}, "[2]": {"tested_on": "immune cells from brain and spleens", "assay": "Flow cytometry of immune cells from brain and spleens of EAE mice", "assay_type": "in vivo, C57BL/6 mice", "protocol": "(§1) EAE is a model for human Multiple Sclerosis. EAE was induced in 6-8 weeks old Female C57BL/6 mice through subcutaneous immunization with 100 μl of 150 μg MOG35-55 peptide (PolyPeptide Laboratories San Diego, CA, USA) along with heat killed Mycobacterium Tuberculosis 8 mg/ml (strain H37Ra) (BD, Franklin Lakes, NJ, USA), emulsified in PBS and complete Freund's adjuvant (CFA) (Fisher, Hampton, NH, USA). Mice also received two subsequent doses of 200 and 400 ng of pertussis toxin intraperitoneally on day 0 and 2, respectively (List Biological Laboratories, Campbell, CA, USA). Beginning on day 10, mice received a 100 μL intraperitoneal injection containing either a vehicle (sterile corn oil (CO) with 2% DMSO v/v) or a treatment suspension (10 mg/kg delta-8-THC in sterile CO with 2% DMSO v/v) every day till the end of the experiment. The control mice received the appropriate vehicle. On the appearance of the clinical symptoms, the animals were provided with food and water (Boost and Hydrogel) in the cage bedding to ensure their access to essential nutrients. During the experiment, animals were weighed for weight change and scored for disease progression on a daily basis. The mean body weight and clinical scores were calculated daily for each group. Clinical scores were recorded as follows: 0, healthy; 1, tail atony; 2, partial paralysis of hind limbs; 3, complete paralysis of hind limbs in combination with partial front limb paralysis; 4, tetraplegia; 5, moribund.\nBD FACSCelesta flow cytometer was used to quantify the phenotypes of immune cells from brain and spleens. Cells were stained with fluorescently labeled monoclonal antibodies purchased from Biolegend (San Diego, CA). The data obtained from flow cytometer was analyzed on FlowJo software."}, "[3]": {"tested_on": "brain-infiltrating CD4+ T cells", "assay": "qRT-PCR of brain-infiltrating CD4+ T cells from EAE mice", "assay_type": "in vivo, C57BL/6 mice", "protocol": "as §1\n(§2) Mononuclear cells isolated from brain were labeled with Phycoerythrin-conjugated (PE-Conjugated) anti-CD4 antibody purchased from Biolegends. […]\n(§3) To analyze gene expression, total RNA was purified from brain infiltrating CD4^+ cells using miRNeasy micro kit according to the manufacturer's instructions. RNA purity and concentration were measured by using Nanodrop spectrophotometer from Thermoscientific. […] The results obtained from qRT-PCR were calculated using delta delta Ct (ΔΔCt) method."}, "[4]": {"tested_on": "brain-infiltrating CD4+ T cells", "assay": "miRNA microarray of CD4+ T cells isolated from the brain of EAE mice", "assay_type": "in vivo, C57BL/6 mice", "protocol": "as §1, §2, §3"}, "CB1 receptors": {"target": "CB1 receptors (Homo sapiens, UniProt P21554)", "sequence (P21554 whole entry)": "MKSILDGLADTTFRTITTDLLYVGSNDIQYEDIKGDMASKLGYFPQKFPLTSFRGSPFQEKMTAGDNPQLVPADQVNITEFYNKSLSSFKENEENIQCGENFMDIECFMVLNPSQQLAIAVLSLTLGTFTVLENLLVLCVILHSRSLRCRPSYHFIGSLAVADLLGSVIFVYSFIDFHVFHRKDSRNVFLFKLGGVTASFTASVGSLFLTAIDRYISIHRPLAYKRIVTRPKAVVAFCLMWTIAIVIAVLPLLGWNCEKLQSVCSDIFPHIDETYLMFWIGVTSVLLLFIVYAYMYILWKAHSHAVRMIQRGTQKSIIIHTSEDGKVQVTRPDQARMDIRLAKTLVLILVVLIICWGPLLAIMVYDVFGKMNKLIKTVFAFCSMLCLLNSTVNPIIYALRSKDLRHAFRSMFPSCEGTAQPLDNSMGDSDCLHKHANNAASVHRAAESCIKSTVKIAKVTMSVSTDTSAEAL", "conditions": "CB1 receptors located in the CNS; cited from earlier work"}, "[5]": {"tested_on": "brain infiltrating mononuclear cells", "assay": "miRNA sequencing (miRNASeq) of brain infiltrating mononuclear cells of EAE mice"}, "[6]": {"conditions": "CD4+ T cells isolated from the brain of EAE mice, miRNA microarray"}}, "note": "Entries after “also recorded” stand apart in the source; their conditions may differ."}
{"smiles": "CCCCCc1cc(O)c2c(c1)OC(C)(C)[C@@H]1CC=C(C)C[C@@H]21", "note": "[Δ-8-THC, delta-8-tetrahydrocannabinol]", "values": [{"measurement": "body weight", "setting": "[1]", "result": "increase; also recorded: attenuated"}, {"measurement": "disease clinical scores / paralysis", "setting": "[1]", "result": "highly significant reduction; also recorded: attenuated; also recorded: decreased levels of paralysis"}, {"measurement": "body weight", "setting": "[1]; listed as Δ8-THC", "result": "gain weight"}, {"measurement": "IL-17+ CD4+ T cells in the brains", "setting": "[2]; brain", "result": "decrease"}, {"measurement": "RORγt+ (Th17) cells in the brains", "setting": "[2]; brain", "result": "decrease"}, {"measurement": "Th1 cells (T-bet) in the brain", "setting": "[2]; brain, expression of T-bet", "result": "not in the brain; also recorded: decrease"}, {"measurement": "IL-17+ CD4+ T cells in the brains", "setting": "[2]; brain, listed as Δ8-THC", "result": "decreased"}, {"measurement": "RORγt+ (Th17) cells in the brains", "setting": "[2]; brain, listed as Δ8-THC", "result": "decreased"}, {"measurement": "percentage of macrophages in the brain", "setting": "[2]; brain-infiltrating pro-inflammatory macrophages", "result": "decreased"}, {"measurement": "percentage of CD4+ T cells in the brain", "setting": "[2]; flow cytometry, brain", "result": "decrease"}, {"measurement": "percentage of CD4+ T cells in the spleens", "setting": "[2]; flow cytometry, spleen", "result": "decrease"}, {"measurement": "IL-17+ CD4+ T cells in the spleens", "setting": "[2]; spleen", "result": "decreased"}, {"measurement": "RORγt+ (Th17) cells in the spleens", "setting": "[2]; spleen", "result": "decrease"}, {"measurement": "Th1 cells expressing IFN-gamma in the spleens", "setting": "[2]; spleen", "result": "decrease"}, {"measurement": "percentage of macrophages in the spleens", "setting": "[2]; spleen", "result": "decrease"}, {"measurement": "Th1 cells (T-bet) in the spleen", "setting": "[2]; spleen, expression of T-bet", "result": "decrease"}, {"measurement": "RORγt+ (Th17) cells in the spleens", "setting": "[2]; spleen, listed as Δ8-THC", "result": "decreased"}, {"measurement": "Foxp3 expression", "setting": "[3]", "result": "increase"}, {"measurement": "IL-10 expression", "setting": "[3]", "result": "increased"}, {"measurement": "TGF-β expression", "setting": "[3]", "result": "increased"}, {"measurement": "expression of miR-21, miR-27a, miR-29a, miR-30a, miR-31, miR-146a, miR-155, and miR-326", "setting": "[4]; [6]", "result": "downregulated"}, {"measurement": "expression of miR-let7, miR-130a, miR-181a, miR-328a and miR-448", "setting": "[4]; [6]", "result": "upregulating"}, {"measurement": "miR expression profile", "setting": "[4]; brain-infiltrating CD4+ T cells from EAE mice, compared to the controls", "result": "distinct signature profile"}, {"measurement": "activity at CB1 receptors", "setting": "CB1 receptors", "result": "partial agonist"}, {"measurement": "miRNA expression (miRNASeq)", "setting": "[5]", "result": "regulates a distinct set of miRNAs compared to Δ-9-THC; also recorded: unique miRNA signature profile distinct from Δ-9-THC; also recorded: differential expression of miRNAs"}]}
